Test results published in patent US8822698B2, “Aminoacid derivatives, their process of preparation and their therapeutical uses as inhibitors of oncogenic signals by the Met family” (Universite D'Aix-Marseille, priority 2009, dated 2014).

Tests used:
[1] = tested on: SNB-75; test: NCI 60 human tumour cell line screen; assay type: cell-based; conditions: conc. 10^−5M; SNB-75, CNS Cancer
From the text: (§1) Compound of example 4 was screened in the NCI 60 human tumour cell line anticancer drug screen (Shoemaker et al Nature reviews 6, 2006, 813-823).

[2] = tested on: CCRF-CEM; test: NCI 60 human tumour cell line screen; assay type: cell-based; conditions: conc. 10^−5M, Leukemia
From the text: as §1

[3] = tested on: 786-0; test: NCI 60 human tumour cell line screen; assay type: cell-based; conditions: conc. 10^−5M; 786-0, Renal Cancer
From the text: as §1

[4] = tested on: SK-MEL-28; test: NCI 60 human tumour cell line screen; assay type: cell-based; conditions: conc. 10^−5M; SK-MEL-28, Melanoma
From the text: as §1

[5] = tested on: HCC-2998; test: NCI 60 human tumour cell line screen; assay type: cell-based; conditions: conc. 10^−5M; HCC-2998, Colon Cancer
From the text: as §1

[6] = tested on: SK-MEL-2; test: NCI 60 human tumour cell line screen; assay type: cell-based; conditions: conc. 10^−5M; SK-MEL-2, Melanoma
From the text: as §1

[7] = tested on: NCl-H460; test: NCI 60 human tumour cell line screen; assay type: cell-based; conditions: conc. 10^−5M; NCl-H460, Non-Small Cell Lung Cancer
From the text: as §1

[8] = tested on: IGROV 1; test: NCI 60 human tumour cell line screen; assay type: cell-based; conditions: conc. 10^−5M; IGROV 1, Ovarian Cancer
From the text: as §1

[9] = tested on: HL-60(TB); test: NCI 60 human tumour cell line screen; assay type: cell-based; conditions: conc. 10^−5M, Leukemia
From the text: as §1

[10] = tested on: TK-10; test: NCI 60 human tumour cell line screen; assay type: cell-based; conditions: conc. 10^−5M; TK-10, Renal Cancer
From the text: as §1

[11] = tested on: OVCAR-4; test: NCI 60 human tumour cell line screen; assay type: cell-based; conditions: conc. 10^−5M; OVCAR-4, Ovarian Cancer
From the text: as §1

[12] = tested on: NCl-H322M; test: NCI 60 human tumour cell line screen; assay type: cell-based; conditions: conc. 10^−5M, Non-Small Cell Lung Cancer
From the text: as §1

[13] = tested on: SN12C; test: NCI 60 human tumour cell line screen; assay type: cell-based; conditions: conc. 10^−5M, Renal Cancer
From the text: as §1

[14] = tested on: NCl•H226; test: NCI 60 human tumour cell line screen; assay type: cell-based; conditions: conc. 10^−5M; NCl•H226, Non-Small Cell Lung Cancer
From the text: as §1

[15] = tested on: EKVX; test: NCI 60 human tumour cell line screen; assay type: cell-based; conditions: conc. 10^−5M, Non-Small Cell Lung Cancer
From the text: as §1

[16] = tested on: MDA-MB-435; test: NCI 60 human tumour cell line screen; assay type: cell-based; conditions: conc. 10^−5M; MDA-MB-435, Melanoma
From the text: as §1

[17] = tested on: HS 578T; test: NCI 60 human tumour cell line screen; assay type: cell-based; conditions: conc. 10^−5M, Breast Cancer
From the text: as §1

[18] = tested on: SNB-19; test: NCI 60 human tumour cell line screen; assay type: cell-based; conditions: conc. 10^−5M; SNB-19, CNS Cancer
From the text: as §1

[19] = tested on: HT29; test: NCI 60 human tumour cell line screen; assay type: cell-based; conditions: conc. 10^−5M; HT29, Colon Cancer
From the text: as §1

[20] = tested on: UACC-257; test: NCI 60 human tumour cell line screen; assay type: cell-based; conditions: conc. 10^−5M; UACC-257, Melanoma
From the text: as §1

[21] = tested on: COLO 205; test: NCI 60 human tumour cell line screen; assay type: cell-based; conditions: conc. 10^−5M; COLO 205, Colon Cancer
From the text: as §1

[22] = tested on: MCF7; test: NCI 60 human tumour cell line screen; assay type: cell-based; conditions: conc. 10^−5M; MCF7, Breast Cancer
From the text: as §1

[23] = tested on: NCl/ADR-RES; test: NCI 60 human tumour cell line screen; assay type: cell-based; conditions: conc. 10^−5M, Ovarian Cancer
From the text: as §1

[24] = tested on: GTL-16 cells; test: In vivo tumorigenesis, GTL-16 cells injected intra-peritoneally in nude mice
Method: Xenografts of GTL-16 cells were established by intraperitoneal (i.p.) or subcutaneously (into the flank/leg region) injection of cells (10^6) in nude mice (S/SOPF SWISS NU/NU; Charles River). Mice were then treated with the compound of example 4 (i.p. 30 mg kg-1) or vehicle every two days (GTL-16 cell intra-peritoneally injected at d=0, treatment started at d=1) or every day (GTL-16 cell intra-peritoneally injected at d=0, treatment started at d=7; GTL-16 cell subcutaneously injected at d=0, treatment started at d=1). Treatments were performed either one day or seven days after cancer cell injection. Mice were then sacrificed, and tumor nodule numbers present in the peritoneal cavity, the measure of their diameter and their total weight was evaluated. Three independent tumorigenesis assays were performed (8 mice per group were used).
We evaluated the ability of compounds of general formula to impair tumour growth in vivo using nude mice injected intra-peritoneally with GTL-16 cells. […] For example, when compounds were administered one day after intraperitoneally injection of GTL-16 cells, the mean numbers of nodules were the following: a) mice trated with vehicle: <1 mm: 3; 1-2 mm: 9.3; 2-5 mm: 11; >5 mm: 3.5. b) mice treated with the compound of example 4: <1 mm: 0.3; 1-2 mm: 1.3; 2-5 mm: 1; >5 mm: 0.8 (FIG. 3). […] Moreover, tumour growth of GTL-16 cells subcutaneously injected was reduced by approximately 35% in mice treated with compounds (data not shown). Taken together, these findings provide evidence that the identified new scaffold interferes with tumour growth in vivo.

[25] = i.p. 30 mg kg-1, treatment one day after i.p. injection of GTL-16 cells
[26] = nude mice injected i.p. with GTL-16 cells

SMILES: O=C(Cc1cc(C(F)(F)F)cc(C(F)(F)F)c1)N[C@@H](Cc1ccccc1)C(=O)Nc1ccc(-c2cn3c(n2)sc2ccccc23)cc1 [Example 4, (S)-2-(3,5-bis(trifluoromethyl)phenylacetamido)-3-phenyl-N-[4-(imidazo[2,1-b]benzothiazol-2-yl)phenyl]propanamide]
- Growth Percent [1]: 20.69%
- Growth Percent [2]: 32.94%
- Growth Percent [3]: 60.35%
- Growth Percent [4]: 26.28%
- Growth Percent [5]: 98.28%
- Growth Percent [6]: 45.85%
- Growth Percent [7]: −16.59%
- Growth Percent [8]: 13.32%
- Growth Percent [9]: 79.95%
- Growth Percent [10]: 61.11%
- Growth Percent [11]: −0.79%
- Growth Percent [12]: 28.70%
- Growth Percent [13]: 47.40%
- Growth Percent [14]: 90.93%
- Growth Percent [15]: 15.48%
- Growth Percent [16]: 54.92%
- Growth Percent [17]: 16.75%
- Growth Percent [18]: 69.84%
- Growth Percent [19]: 18.28%
- Growth Percent [20]: 55.20%
- Growth Percent [21]: 71.04%
- Growth Percent [22]: 59.09%
- Growth Percent [23]: 43.07%
- mean number of nodules 1-2 mm [24, 25]: 1.3
- mean number of nodules 2-5 mm [24, 25]: 1
- mean number of nodules <1 mm [24, 25]: 0.3
- mean number of nodules >5 mm [24, 25]: 0.8
- number of tumours [24, 26]: drastically reduced
- total weight of tumours [24, 26]: drastically reduced
